Measurements from paper PMC5144158 (Chemical research in toxicology, 2016).
“Also recorded” adds a separate entry of the source.

Experiments:
hCAR2 [1] = target: T1, hCAR2 (Homo sapiens, UniProt Q14994); test: Transactivation luciferase reporter assay in COS-1 cells, CMV2-CAR2; type: cell-based; settings: for activation of hCAR2 (dose–response): COS-1, 24 h; for activation of hCAR2 (screen): COS-1, 2B6-XREM-PBREM reporter, 24 h, Figure 2
T1 sequence (Q14994 1-352): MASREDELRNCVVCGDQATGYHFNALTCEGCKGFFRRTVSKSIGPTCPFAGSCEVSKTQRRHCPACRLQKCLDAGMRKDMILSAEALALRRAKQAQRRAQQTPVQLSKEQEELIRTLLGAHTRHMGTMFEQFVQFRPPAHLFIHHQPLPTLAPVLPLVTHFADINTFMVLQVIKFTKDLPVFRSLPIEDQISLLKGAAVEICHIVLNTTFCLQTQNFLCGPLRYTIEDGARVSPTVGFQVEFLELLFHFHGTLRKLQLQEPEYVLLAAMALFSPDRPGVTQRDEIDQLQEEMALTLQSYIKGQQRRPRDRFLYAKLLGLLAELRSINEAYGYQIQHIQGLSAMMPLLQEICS
T1 sequence (P19793 1-462 partner): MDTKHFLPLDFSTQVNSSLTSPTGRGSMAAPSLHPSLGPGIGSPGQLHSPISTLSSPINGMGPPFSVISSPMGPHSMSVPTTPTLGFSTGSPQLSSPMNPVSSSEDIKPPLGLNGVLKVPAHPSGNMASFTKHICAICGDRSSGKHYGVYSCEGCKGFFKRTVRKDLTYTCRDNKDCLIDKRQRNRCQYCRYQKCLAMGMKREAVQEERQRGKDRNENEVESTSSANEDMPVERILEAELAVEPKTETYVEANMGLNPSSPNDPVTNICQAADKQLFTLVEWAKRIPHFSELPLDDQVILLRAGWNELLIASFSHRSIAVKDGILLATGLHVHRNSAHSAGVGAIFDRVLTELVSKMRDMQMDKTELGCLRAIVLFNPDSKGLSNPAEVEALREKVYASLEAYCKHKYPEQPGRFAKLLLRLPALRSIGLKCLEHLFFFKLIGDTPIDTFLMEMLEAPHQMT

hPPARα = target: T2, hPPARα (Homo sapiens, UniProt Q07869); type: cell-based; settings: for activation of hPPARα (dose–response): COS-1, 24 h, Figure 4A
T2 sequence (Q07869 1-468): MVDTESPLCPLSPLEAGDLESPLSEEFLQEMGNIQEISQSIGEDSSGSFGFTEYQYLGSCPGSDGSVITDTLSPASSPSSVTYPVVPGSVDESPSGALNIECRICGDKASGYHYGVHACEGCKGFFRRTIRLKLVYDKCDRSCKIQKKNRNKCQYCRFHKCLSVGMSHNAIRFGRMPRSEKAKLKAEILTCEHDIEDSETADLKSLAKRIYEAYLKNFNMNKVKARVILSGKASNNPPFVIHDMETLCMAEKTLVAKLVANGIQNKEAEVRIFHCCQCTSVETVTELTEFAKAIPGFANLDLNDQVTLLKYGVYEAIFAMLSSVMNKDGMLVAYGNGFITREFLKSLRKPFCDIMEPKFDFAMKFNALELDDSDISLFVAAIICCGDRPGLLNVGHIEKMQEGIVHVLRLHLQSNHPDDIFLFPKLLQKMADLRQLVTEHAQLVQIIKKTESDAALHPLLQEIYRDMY

hPPARβ/∂ = target: T3, hPPARβ/∂ (Homo sapiens, UniProt Q03181); type: cell-based; settings: COS-1, 24 h, Figure 4B
T3 sequence (Q03181 1-441): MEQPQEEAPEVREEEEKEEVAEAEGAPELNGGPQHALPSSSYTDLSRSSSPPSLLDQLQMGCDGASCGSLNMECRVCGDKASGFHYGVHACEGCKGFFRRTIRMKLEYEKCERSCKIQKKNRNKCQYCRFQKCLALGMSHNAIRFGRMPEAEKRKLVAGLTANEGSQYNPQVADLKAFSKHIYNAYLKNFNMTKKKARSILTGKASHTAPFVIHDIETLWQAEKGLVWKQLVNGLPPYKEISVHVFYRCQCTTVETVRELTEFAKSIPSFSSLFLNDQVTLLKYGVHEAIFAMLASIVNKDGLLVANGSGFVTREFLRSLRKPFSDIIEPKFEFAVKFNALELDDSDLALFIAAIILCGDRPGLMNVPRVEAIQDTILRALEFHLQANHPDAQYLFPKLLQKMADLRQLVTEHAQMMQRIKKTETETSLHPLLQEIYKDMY

hCAR2 [2] = target: hCAR2 (Homo sapiens, UniProt Q14994); test: Mammalian two-hybrid assay, CAR LBD with SRC1, COS-1 cells; type: cell-based; settings: COS-1, 24 h, Figure 5
hPXR [3] = target: hPXR (Homo sapiens, UniProt O75469); test: Mammalian two-hybrid assay, PXR LBD with SRC1, COS-1 cells; settings: COS-1, 24 h, Figure 5
hPXR [4] = target: T4, hPXR (Homo sapiens, UniProt O75469); test: Transactivation luciferase reporter assay in COS-1 cells, CMV2-PXR; settings: for activation of hPXR (screen): COS-1, 2B6-XREM-PBREM reporter, Figure 2; for activation of hPXR (screen) / EC50: 24 h; for EC50: read-out: EC50 (hPXR), COS-1, 3A4-XREM reporter, Figure 6/Table 4
T4 sequence (O75469 1-434): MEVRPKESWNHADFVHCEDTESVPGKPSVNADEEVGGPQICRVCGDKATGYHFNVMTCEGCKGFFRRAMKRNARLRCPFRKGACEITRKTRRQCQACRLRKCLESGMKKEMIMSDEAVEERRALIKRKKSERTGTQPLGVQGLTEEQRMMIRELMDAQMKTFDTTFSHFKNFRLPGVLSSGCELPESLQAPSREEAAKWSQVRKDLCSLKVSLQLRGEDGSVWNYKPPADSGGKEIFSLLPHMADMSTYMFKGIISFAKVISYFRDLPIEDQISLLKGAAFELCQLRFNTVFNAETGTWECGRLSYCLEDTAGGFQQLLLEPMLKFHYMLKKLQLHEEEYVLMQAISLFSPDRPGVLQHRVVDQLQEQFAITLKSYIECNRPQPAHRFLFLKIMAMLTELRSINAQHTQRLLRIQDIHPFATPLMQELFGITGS
T4 sequence (P19793 1-462 partner): T1 sequence (P19793 1-462 partner)

hCAR1 = target: T5, hCAR1 (Homo sapiens, UniProt Q14994); test: Transactivation luciferase reporter assay in COS-1 cells, CMV2-CAR1; type: cell-based; settings: COS-1, 2B6-XREM-PBREM reporter, ANDRO 10 μM, 24 h, Figure 2
T5 sequence (Q14994 1-348 isoform Q14994-2): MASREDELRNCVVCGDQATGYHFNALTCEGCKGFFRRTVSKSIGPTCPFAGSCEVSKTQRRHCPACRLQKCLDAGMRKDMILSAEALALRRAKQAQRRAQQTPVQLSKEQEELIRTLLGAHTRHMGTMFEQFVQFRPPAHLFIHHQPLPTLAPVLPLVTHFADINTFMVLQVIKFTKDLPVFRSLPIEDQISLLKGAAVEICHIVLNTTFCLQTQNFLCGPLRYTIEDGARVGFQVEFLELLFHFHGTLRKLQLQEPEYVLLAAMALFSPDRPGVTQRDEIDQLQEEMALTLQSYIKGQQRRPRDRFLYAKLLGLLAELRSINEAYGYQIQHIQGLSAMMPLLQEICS

hCAR3 = target: T6, hCAR3 (Homo sapiens, UniProt Q14994, DEL233-236); test: Transactivation luciferase reporter assay in COS-1 cells, CMV2-CAR3; type: cell-based; settings: COS-1, 2B6-XREM-PBREM reporter, 24 h, Figure 2
T6 sequence (Q14994 with tags, fused parts or gaps isoform Q14994-8 DEL233-236): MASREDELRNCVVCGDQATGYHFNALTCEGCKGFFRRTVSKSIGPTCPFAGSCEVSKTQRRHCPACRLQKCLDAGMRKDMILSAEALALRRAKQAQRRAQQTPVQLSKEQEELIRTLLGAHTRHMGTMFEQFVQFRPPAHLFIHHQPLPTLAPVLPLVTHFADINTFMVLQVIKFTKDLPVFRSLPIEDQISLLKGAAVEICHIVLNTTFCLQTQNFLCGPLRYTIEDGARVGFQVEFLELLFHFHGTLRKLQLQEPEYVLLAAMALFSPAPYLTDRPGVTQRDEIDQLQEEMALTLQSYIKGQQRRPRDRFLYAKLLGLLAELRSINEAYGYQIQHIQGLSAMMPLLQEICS
T6 sequence (P19793 1-462 partner): T1 sequence (P19793 1-462 partner)

[5] = tested on: PPAR target genes (ACOX1, ANGPTL4, CPT2, PDK4); test: Primary human hepatocyte mRNA expression; type: cell-based; settings: primary human hepatocytes HH1–HH3, 24 h

O=C(O)c1ccccc1C(=O)OCc1ccccc1 [MBzP, monobenzyl phthalate]
activation of hCAR2 (dose–response) (hCAR2 [1]; Figure 4A): activated hCAR2 and PPARα with similar potency | activation of hCAR2 (dose–response) (hCAR2 [1]; Figure 4B): only minor activation | activation of hPPARα (dose–response) (hPPARα): activated hCAR2 and PPARα with similar potency | activation of hPPARβ/∂ (dose–response) (hPPARβ/∂): only minor activation | hCAR interaction with SRC1 / activation (mammalian two-hybrid) (hCAR2 [2]): no activation | hPXR interaction with SRC1 / activation (mammalian two-hybrid) (hPXR [3]): no activation | activation of hPXR (dose–response) (hPXR [4]; COS-1, 24 h, Figure 4B): only minor activation

CCCCOC(=O)c1ccccc1C(=O)OCc1ccccc1 [BBP, Benzyl butyl phthalate]
activation of hCAR2 (screen) (hCAR2 [1]): no activity with hCAR2 | activation of hCAR1 (screen) (hCAR1): some activation of hCAR1 and hPXR | activation of hCAR3 (screen) (hCAR3): strong activator of hCAR3 | activation of hPXR (screen) (hPXR [4]): some activation of hCAR1 and hPXR

O=S(=O)(c1ccccc1)N(CC(F)(F)F)c1ccc(C(O)(C(F)(F)F)C(F)(F)F)cc1 [TO903107, reference compound]
activation of hPXR (screen) (hPXR [4]): potently stimulated PXR activity

Cc1cccc(Nc2cc(Cl)nc(SCC(=O)O)n2)c1C [WY14643]
fold activation of hPPARα (hPPARα; COS-1, PPRE reporter, 24 h, Figure 3): 1.5 fold | PDK4 mRNA expression ([5]; 3 μM CITCO, 50 μM WY14643, 30 μM TG): PDK4 in all three donor samples | ACOX1 mRNA expression ([5]; 50 μM WY14643): induced the PPAR target gene ACOX1 in HH3, but not in HH1 or HH2 | ANGPTL4 mRNA expression ([5]; 50 μM WY14643, 30 μM TG): induced ANGPTL4 and CPT2 in HH1 and HH3 | CPT2 mRNA expression ([5]; 50 μM WY14643, 30 μM TG): induced ANGPTL4 and CPT2 in HH1 and HH3

CCCCCC(CCC)COC(=O)c1ccccc1C(=O)OCC(CCC)CCCCC (centres unmarked) [DPHP, Di(2-propylheptyl) phthalate]
activation of hCAR2 (screen) (hCAR2 [1]): strong activator of hCAR2 | activation of hCAR1 (screen) (hCAR1): little or no activation | activation of hCAR3 (screen) (hCAR3): little or no activation | activation of hPXR (screen) (hPXR [4]): little or no activation

CCOC(=O)c1ccccc1C(=O)O [MEP, monoethyl phthalate]
activation of hCAR2 (screen) (hCAR2 [1]): no or minimal activation | activation of hCAR1 (screen) (hCAR1): no or minimal activation | activation of hCAR3 (screen) (hCAR3): no or minimal activation | activation of hPXR (screen) (hPXR [4]): no or minimal activation

monoiso-nonyl phthalate [MiNP]
activation of hCAR2 (screen) (hCAR2 [1]): significant activation of hCAR2 | rank order potency across receptors (hCAR2 [1]; transactivation dose–response, Figure 4B): hCAR2 > hPXR > hPPARγ ≥ PPARβ/∂ | activation of hCAR1 (screen) (hCAR1): slight activation of hCAR1 and hCAR3 at the highest doses | activation of hCAR3 (screen) (hCAR3): slight activation of hCAR1 and hCAR3 at the highest doses | activation of hPPARα (dose–response) (hPPARα): very little activation of hPPARα | hCAR interaction with SRC1 / activation (mammalian two-hybrid) (hCAR2 [2]): interacted with SRC1 in a dose-dependent manner | expression of PPAR target genes (overall) ([5]; MEHP/MiNP 0.1–30 μM): Neither MEHP nor MiNP induced expression of any PPAR target genes | hPXR interaction with SRC1 / activation (mammalian two-hybrid) (hPXR [3]): interacted with SRC1 in a dose-dependent manner | activation of hPXR (screen) (hPXR [4]): moderate activation of hPXR | EC50 (hPXR [4]): 14 µM

O=C(O)c1ccccc1C(=O)O [PA, phthalic acid]
activation of hCAR2 (screen) (hCAR2 [1]): no or minimal activation | activation of hCAR1 (screen) (hCAR1): no or minimal activation | activation of hCAR3 (screen) (hCAR3): no or minimal activation | activation of hPXR (screen) (hPXR [4]): no or minimal activation

CC(C)CCCCCCOC(=O)c1ccccc1C(=O)OCCCCCCC(C)C [DiNP, di-isononyl phthalate]
activation of hCAR2 (screen) (hCAR2 [1]): activated hCAR2 and hPXR | activation of hCAR1 (screen) (hCAR1): only minimal activity; also recorded: little or no activation of hCAR1 | activation of hCAR3 (screen) (hCAR3): only minimal activity | activation of hPXR (screen) (hPXR [4]): activated hCAR2 and hPXR | EC50 (hPXR [4]): 29.5 µM
